Assay results taken from patent US7932283B2, “Fungicide N-cyclopropyl-sulfonylamide derivatives” (Bayer Cropscience AG, priority 2006, dated 2011).

What was measured:
[1] = tested on: Mycosphaerella graminicola; assay: In vivo test on Mycosphaerella graminicola (wheat leaf spot); settings: Zymoseptoria tritici, wheat plants (Scipion variety), grading 21 to 28 days after contamination, good (at least 70%) or total protection, read-out: protection (% of efficacy)
Method: In vivo Test on Mycosphaerella graminicola (Wheat Leaf Spot)
The active ingredients tested are prepared by homogenisation in a mixture of acetone/tween/DMSO, and then diluted with water to obtain the desired active material concentration.
Wheat plants (Scipion variety), sown on a 50/50 peat soil-pozzolana substrate in starter cups and grown at 12° C., are treated at the 1-leaf stage (10 cm tall) by spraying with the active ingredient prepared as described above.
Plants, used as controls, are treated with the mixture of acetone/tween/DMSO/water not containing the active material.
After 24 hours, the plants are contaminated by spraying them with an aqueous suspension of Mycosphaerella graminicola spores (500 000 spores per ml). The spores are collected from a 7-day-old culture. The contaminated wheat plants are incubated for 72 hours at 18° C. and at 100% relative humidity, and then for 21 to 28 days at 90% relative humidity.
Grading (% of efficacy) is carried out 21 to 28 days after the contamination, in comparison with the control plants.

[2] = logP by HPLC on reversed-phase column (C 18), EEC Directive 79/B31 Annex V.A8, methods A and B; format: physicochemical; settings: reversed-phase HPLC column (C 18), linear gradient 10% to 90% acetonitrile
Method: Calibration was carried out using unbranched alkan-2-ones (having 3 to 16 carbon atoms) with known logP values (determination of the logP values by the retention times using linear interpolation between two successive alkanones).

[3] = tested on: Pyrenophora teres; assay: In vivo test on Pyrenophora teres (barley net blotch); settings: 288 h, barley plants (Express variety), grading 12 days after contamination, good (at least 70%) or total protection
Method: In Vivo Test on Pyrenophore teres (Barley Net Blotch)
(§1) The active ingredients tested are prepared by homogenisation in a mixture of acetone/tween/DMSO, then diluted with water to obtain the desired active material concentration. Barley plants (Express variety) in starter cups, sown on a 50/50 peat soil-pozzolana substrate and grown at 12° C., are treated at the 1-leaf stage (10 cm tall) by spraying with the active ingredient prepared as described above. Plants, used as controls, are treated with the mixture of acetone/tween/DMSO/water not containing the active material.
After 24 hours, the plants are contaminated by spraying them with an aqueous suspension of Pyrenophora teres spores (12,000 spores per ml). The spores are collected from a 12-day-old culture. The contaminated barley plants are incubated for 24 hours at about 20° C. and at 100% relative humidity, and then for 12 days at 80% relative humidity.

[4] = tested on: Puccinia recondita; assay: In vivo test on Puccinia recondita f. sp. tritici (wheat brown rust); settings: 240 h, wheat plants (Scipion variety), grading 10 days after contamination, good (at least 70%) or total protection
Method: In vivo Test on Puccinia reconditef. Sp. tritici (Wheat Brown Rust)
as §1, with “Wheat” for “Barley”, “(Scipion” for “(Express”, “on” for “on a”
After 24 hours, the plants are contaminated by spraying the leaves with an aqueous suspension of Puccinia recondita spores (100,000 spores per ml). The spores are collected from a 10-day-old contaminated wheat and are suspended in water containing 2.5 ml/of tween 80 10%. The contaminated wheat plants are incubated for 24 hours at 20° C. and at 100% relative humidity, and then for 10 days at 20° C. and at 70% relative humidity. Grading is carried out 10 days after the contamination, in comparison with the control plants.

[5] = tested on: Podosphaera leucotricha; assay: In vivo test on Podosphaera leucotricha (apple mildew), preventive spray; settings: 240 h, apple young plants, evaluated 10 days after inoculation, good (at least 70%) to total protection
Method: In Vivo Test on Podosphaera leucotncha (Apple Mildew) [table] To produce a suitable preparation of active compound, 1 part by weight of active compound is mixed with the stated amounts of solvent and emulsifier, and the concentrate is diluted with water to the desired concentration. Young plants are sprayed with the preparation of active compound at the stated rate of application. After the spray coating has dried on, the plants are inoculated with an aqueous spore suspension of the causal agent of apple mildew (Podosphaera leucobicha). The plants are then placed in a greenhouse at approximately 23° C. and a relative atmospheric humidity of approximately 70%. The test is evaluated 10 days after the inoculation. Under these conditions, good (at least 70%) to total protection is observed at a dose of 100 ppm with the following compounds: 104, 160, 176, 177, 180, 186, 187, 188, 192, 194, 196, 198, 203, 204, 205, 207, 209, 210, 211, 212, 213, 218 and 446.

[6] = HPLC reversed-phase C 18, method B: 40° C., 0.1% aqueous formic acid and acetonitrile
[7] = LogP method B: HPLC reversed-phase C 18, 40° C., 0.1% aqueous formic acid / acetonitrile
[8] = HPLC reversed-phase C 18, method A: 43° C., 0.1% aqueous phosphoric acid, acetonitrile

Row | SMILES | pest or weed control at 500 ppm [1] [%] | pest or weed control at 500 ppm [3] [%] | pest or weed control at 500 ppm [4] [%] | chromatographic logP [2, 7] | other results
1 | CCc1nn(C)c(F)c1C(=O)N(C1CC1)S(=O)(=O)c1ccc(C(F)(F)F)cc1Br [Compound 375] | ≥ 70 | ≥ 70 | – | – | chromatographic logP [2, 6]: 3.6
2 | COc1nn(C)cc1C(=O)N(C1CC1)S(=O)(=O)c1ccc(Oc2ccc(Br)cc2)cc1 [Compound 269] | – | ≥ 70 | ≥ 70 | – | –
3 | COc1nn(C)cc1C(=O)N(C1CC1)S(=O)(=O)c1ccc(Sc2ccccc2)cc1 [Compound 266, N-cyclopropyl-3-methoxy-1-methyl-N-{[4-(phenylthio)phenyl]sulfonyl}-1H-pyrazole-4-carboxamide] | – | ≥ 70 | ≥ 70 | – | –
4 | CCOc1nn(C)cc1C(=O)N(C1CC1)S(=O)(=O)c1ccc(Oc2ccc(OC)cc2)c(O)c1 [Compound 531] | ≥ 70 | ≥ 70 | ≥ 70 | 3.8 | –
5 | CCOc1nn(C)cc1C(=O)N(C1CC1)S(=O)(=O)c1ccc(Oc2ccc(Br)cc2)c(O)c1 [Compound 552] | ≥ 70 | – | ≥ 70 | 4.5 | –
6 | CCOc1nn(C)cc1C(=O)N(C1CC1)S(=O)(=O)c1ccc(Cc2cc(O)cc(O)c2)c(O)c1 [Compound 559] | ≥ 70 | – | ≥ 70 | 5 | –
7 | COc1nn(C)cc1C(=O)N(C1CC1)S(=O)(=O)c1ccc(Oc2ccc(Cl)cc2)cc1Cl [Compound 501] | ≥ 70 | ≥ 70 | – | – | –
8 | CCc1nn(C)c(F)c1C(=O)N(C1CC1)S(=O)(=O)c1ccccc1Br [Compound 374] | ≥ 70 | ≥ 70 | – | – | chromatographic logP [2, 6]: 2.7
9 | COc1nn(C)cc1C(=O)N(C1CC1)S(=O)(=O)c1ccc2c(c1)CCC(C)(C)O2 [Compound 457] | ≥ 70 | – | ≥ 70 | – | –
10 | CCc1nn(C)c(F)c1C(=O)N(C1CC1)S(=O)(=O)c1ccc(C(C)(C)C)cc1 [Compound 381] | – | ≥ 70 | – | – | –
11 | Cn1nc(C(F)(F)F)c(C(=O)N(C2CC2)S(=O)(=O)c2c(O)sc(O)c2Br)c1F [Compound 436] | – | ≥ 70 | – | 3.9 | –
12 | CCOc1nn(C)cc1C(=O)N(C1CC1)S(=O)(=O)c1ccc(Oc2cccc(C(F)(F)F)c2F)c(O)c1 [Compound 547] | ≥ 70 | – | ≥ 70 | 4.3 | –
13 | Cn1nc(C(F)(F)F)c(C(=O)N(C2CC2)S(=O)(=O)c2cccc(O)c2O)c1F [Compound 357] | – | ≥ 70 | – | – | chromatographic logP [2, 6]: 3.3
14 | CCCCOc1ccc(S(=O)(=O)N(C(=O)c2cn(C)nc2OC)C2CC2)cc1 [Compound 262] | ≥ 70 | ≥ 70 | ≥ 70 | – | –
15 | CCOc1nn(C)cc1C(=O)N(C1CC1)S(=O)(=O)c1ccc(Oc2ccc(O)c(C(F)(F)F)c2)c(Cl)c1 [Compound 556] | ≥ 70 | – | ≥ 70 | 4.8 | –
16 | CCOc1nn(C)cc1C(=O)N(C1CC1)S(=O)(=O)c1ccc(Oc2cccc(C(F)(F)F)c2)cc1 [Compound 264] | ≥ 70 | – | ≥ 70 | – | –
17 | Cc1nn(C)c(F)c1C(=O)N(C1CC1)S(=O)(=O)c1ccc(C(F)(F)F)cc1 [Compound 188] | – | – | – | – | pest or weed control at 100 ppm [5]: ≥ 70%; chromatographic logP [2, 8]: 3.1

Row | SMILES | pest or weed control at 500 ppm [1] [%] | pest or weed control at 500 ppm [3] [%] | pest or weed control at 500 ppm [4] [%] | chromatographic logP [2, 7] | other results
18 | COc1nn(C)cc1C(=O)N(C1CC1)S(=O)(=O)c1ccc(-c2cccc3ccccc23)cc1 [Compound 258] | ≥ 70 | ≥ 70 | – | – | –
19 | Cc1nn(C)c(F)c1C(=O)N(C1CC1)S(=O)(=O)c1cccnc1O [Compound 446] | – | – | – | – | pest or weed control at 100 ppm [5]: ≥ 70%; chromatographic logP ([2]; LogP method A: HPLC reversed-phase C 18, 43° C., 0.1% aqueous phosphoric acid / acetonitrile): 1.96
20 | COc1nn(C)cc1C(=O)N(C1CC1)S(=O)(=O)c1ccccc1O [Compound 211] | – | – | – | – | pest or weed control at 100 ppm [5]: ≥ 70%; chromatographic logP [2, 8]: 1.94
21 | Cc1nn(C)c(F)c1C(=O)N(C1CC1)S(=O)(=O)c1ccc2c(c1)CCC(C)(C)O2 [Compound 456] | ≥ 70 | ≥ 70 | ≥ 70 | – | –
22 | Cc1nc(C(=O)N(C2CC2)S(=O)(=O)c2ccc(Oc3ccccc3)cc2)c(C(F)(F)F)o1 [Compound 49] | ≥ 70 | – | ≥ 70 | – | –
23 | CCc1nn(C)c(F)c1C(=O)N(C1CC1)S(=O)(=O)c1c(O)cc(C(F)(F)F)cc1O [Compound 387] | ≥ 70 | ≥ 70 | – | – | chromatographic logP [2, 6]: 3.8
24 | CCOc1nn(C)cc1C(=O)N(C1CC1)S(=O)(=O)c1ccc2c(c1)CCC(C)(C)O2 [Compound 524] | ≥ 70 | – | ≥ 70 | – | –
25 | COc1nn(C)cc1C(=O)N(C1CC1)S(=O)(=O)c1ccc(Oc2ccc(C(F)(F)F)cc2)cc1 [Compound 268] | – | ≥ 70 | – | – | –
26 | CCOc1nn(C)cc1C(=O)N(C1CC1)S(=O)(=O)c1ccc(Oc2ccc(C(F)(F)F)cc2)c(Br)c1 [Compound 550] | ≥ 70 | – | ≥ 70 | 4.4 | –
27 | Cc1nn(C)c(F)c1C(=O)N(C1CC1)S(=O)(=O)c1c(O)cccc1O [Compound 218] | – | – | – | – | pest or weed control at 100 ppm [5]: ≥ 70%; chromatographic logP [2, 8]: 2.52
28 | CCCCOc1ccc(S(=O)(=O)N(C(=O)c2c(C)nn(C)c2F)C2CC2)cc1 [Compound 263] | ≥ 70 | ≥ 70 | – | – | –
29 | CCOc1nn(C)cc1C(=O)N(C1CC1)S(=O)(=O)c1ccc(Oc2cccc(O)c2)c(O)c1 [Compound 546] | – | ≥ 70 | ≥ 70 | 4.3 | –
30 | CCOc1nn(C)cc1C(=O)N(C1CC1)S(=O)(=O)c1ccc(Oc2cccc(N(C)C)c2)c(O)c1 [Compound 539] | ≥ 70 | – | ≥ 70 | 4.1 | –
31 | COc1nn(C)cc1C(=O)N(C1CC1)S(=O)(=O)c1c(O)cc(C(F)(F)F)cc1O [Compound 396] | – | ≥ 70 | – | – | chromatographic logP [2, 6]: 3
32 | CCOc1nn(C)cc1C(=O)N(C1CC1)S(=O)(=O)c1ccc(Oc2ccc(OC)c(OC)c2)c(O)c1 [Compound 528] | ≥ 70 | – | ≥ 70 | 3.5 | –
33 | Cc1cccc(Oc2ccc(S(=O)(=O)N(C(=O)c3cn(C)nc3C(F)F)C3CC3)cc2)c1 [Compound 254] | ≥ 70 | ≥ 70 | – | – | –
